Test results reported in BindingDB's records for patent US20250313563 (The Broad Institute, 2025).
Several values for one entry are separate records, joined by “and”; a condition that tells them apart may be missing. Equal values may be shown once.

Assays:
[1] = target: Glycogen synthase kinase-3 beta (Homo sapiens, UniProt P49841); test: TR-FRET Assay
How it was run: (§1)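 Compound was preincubated 30 min in assay buffer before the kinase reaction, which was quenched with EDTA. Phosphorylation was detected by TR-FRET after adding a solution of 40 nM streptavidin-d2 and 2 nM Tb-labelled anti-pSer641 antibody.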

[2] = target: Glycogen synthase kinase-3 alpha (Homo sapiens, UniProt P49840); test: TR-FRET Assay
Sequence of Glycogen synthase kinase-3 alpha (P49840 whole entry): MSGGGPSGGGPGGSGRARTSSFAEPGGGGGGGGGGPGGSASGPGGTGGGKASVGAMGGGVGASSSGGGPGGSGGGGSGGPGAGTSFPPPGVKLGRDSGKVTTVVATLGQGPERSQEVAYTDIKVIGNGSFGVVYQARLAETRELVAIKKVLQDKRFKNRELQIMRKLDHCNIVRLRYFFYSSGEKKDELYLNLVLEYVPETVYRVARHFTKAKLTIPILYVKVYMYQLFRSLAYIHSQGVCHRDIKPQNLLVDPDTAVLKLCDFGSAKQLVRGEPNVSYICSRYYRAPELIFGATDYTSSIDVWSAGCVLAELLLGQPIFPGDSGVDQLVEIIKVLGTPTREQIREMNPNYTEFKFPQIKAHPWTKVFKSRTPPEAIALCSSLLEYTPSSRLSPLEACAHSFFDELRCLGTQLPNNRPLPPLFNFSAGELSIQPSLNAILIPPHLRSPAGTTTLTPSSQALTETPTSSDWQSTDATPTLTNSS
How it was run: as §1

Sequence of Glycogen synthase kinase-3 beta (P49841 whole entry): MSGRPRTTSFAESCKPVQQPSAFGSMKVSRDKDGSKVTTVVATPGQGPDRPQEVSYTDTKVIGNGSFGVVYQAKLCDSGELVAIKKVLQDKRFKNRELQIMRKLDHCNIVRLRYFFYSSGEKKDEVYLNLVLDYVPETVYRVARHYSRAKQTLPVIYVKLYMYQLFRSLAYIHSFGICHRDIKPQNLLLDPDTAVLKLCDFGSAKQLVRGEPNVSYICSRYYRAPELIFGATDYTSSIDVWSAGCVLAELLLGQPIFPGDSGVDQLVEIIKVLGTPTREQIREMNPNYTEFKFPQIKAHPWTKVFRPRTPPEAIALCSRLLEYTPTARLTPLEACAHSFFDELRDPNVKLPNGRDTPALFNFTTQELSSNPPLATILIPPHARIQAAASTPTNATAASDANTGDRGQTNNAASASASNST

Row | SMILES | IC50 [1] | IC50 [2]
1 | CCC1(c2cccc(C3=CN=NC3)c2)C2=CN=NC2NC2=C1C(=O)NC(C)(C)C2 (configuration not stated) [US20250313563, Compound 944022] | 100 to 1000 nM | < 100 nM
2 | CC[C@@]1(c2cccc(-c3c(F)cncc3OC)c2)C2=CN=NC2NC2=C1C(=O)NC(C)(C)C2 (some centres not stated) [US20250313563, Compound 948150] | < 100 nM and 100 to 1000 nM | < 100 nM
3 | CCC1(c2cccc(-c3ccnc(OC(F)F)c3)c2)C2=CN=NC2NC2=C1C(=O)CC(C)(C)C2 (configuration not stated) [US20250313563, Compound 932629] | 100 to 1000 nM | < 100 nM
4 | CC[C@]1(c2cccc(C(F)(F)F)c2)C2=C(N=NC2)NC2=C1C(=O)N(C)C2 [US20250313563, Compound 945367] | 1000 to 5000 nM | 100 to 1000 nM
5 | CCC1(c2cccc(S(=O)(=O)CCOC)c2)C2=CN=NC2NC2=C1C(=O)CC(C)(C)C2 (configuration not stated) [US20250313563, Compound 918271] | < 100 nM | < 100 nM
6 | CC1(C)CC(=O)C2=C(C1)NC1=C(CN=N1)C21CCN(S(=O)(=O)c2cnc3ccccn23)CC1 [US20250313563, Compound 947610] | < 100 nM | < 100 nM
7 | CC[C@@]1(c2cccc(C(F)F)c2)C2=C(CC(C)(C)CC2=O)NC2N=NC(C(F)(F)F)=C21 (some centres not stated) [US20250313563, Compound 945708] | 100 to 1000 nM | < 100 nM
8 | CCn1ccc(S(=O)(=O)N2CCC3(CC2)C2=CN=NC2NC2=C3C(=O)NC(C)(C)C2)n1 (configuration not stated) [US20250313563, Compound 947836] | 100 to 1000 nM | < 100 nM
9 | CCC1(c2cccc(SC)c2)C2=CN=NC2NC2=C1C(=O)CC(C)(C)C2 (configuration not stated) [US20250313563, Compound 810508] | 100 to 1000 nM | < 100 nM
10 | CC1(C)CC(=O)C2=C(C1)NC1=C(CN=N1)[C@@]21COC2(CN(C(=O)[C@@H]3CC3(F)F)C2)C1 [US20250313563, Compound 948221] | 100 to 1000 nM | 100 to 1000 nM
11 | COc1cccc(S(=O)(=O)N2CCC3(CC2)C2=C(N=NC2)NC2=C3C(=O)CC(C)(C)C2)c1 [US20250313563, Compound 901468] | < 100 nM and 1000 to 5000 nM | < 100 nM and 100 to 1000 nM
12 | CC[C@@]1(c2cccc(S(C)(=O)=O)c2)C2=C(CC(C)(C)NC2=O)NC2N=NC(C(F)(F)F)=C21 (some centres not stated) [US20250313563, Compound 948422] | 100 to 1000 nM | 100 to 1000 nM
13 | CC[C@]1(c2cccc(-c3ccnc4cc(F)c(F)cc34)c2)C2=CN=NC2NC2=C1C(=O)NC(C)(C)C2 (some centres not stated) [US20250313563, Compound 948664] | > 5000 nM | 1000 to 5000 nM
14 | Cc1ncc(S(=O)(=O)N2CCC3(CC2)C2=C(N=NC2)NC2=C3C(=O)CC(C)(C)C2)s1 [US20250313563, Compound 947899] | < 100 nM | < 100 nM
15 | O=C1C2=C(NC3N=NC=C3C23CCOCC3)[C@@H]2CC[C@H]1C2 (some centres not stated) [US20250313563, Compound 912081] | 1000 to 5000 nM | 100 to 1000 nM
16 | CC[C@@]1(c2cccc(C(F)(F)F)c2)C2=CN=NC2NC2=C1C(=O)N(C)C[C@@H]2C (some centres not stated) [US20250313563, Compound 883981] | > 5000 nM | > 5000 nM
17 | CC[C@]1(c2cc(-c3ccncc3)ccc2C)C2=CN=NC2NC2=C1C(=O)CC(C)(C)C2 (some centres not stated) [US20250313563, Compound 893323] | 100 to 1000 nM | 100 to 1000 nM
18 | CCC1(c2cccc(-c3ccn(C)n3)c2)C2=C(CC(C)(C)CC2=O)NC2N=NC(C)=C21 (configuration not stated) [US20250313563, Compound 883999] | < 100 nM | < 100 nM
19 | CC[C@@]1(c2cccc(-c3cc(C)ncc3OC)c2)C2=CN=NC2NC2=C1C(=O)NC(C)(C)C2 (some centres not stated) [US20250313563, Compound 949512] | > 5000 nM | 1000 to 5000 nM
20 | CCC1(c2cccc(N(C)c3ncccn3)c2)C2=C(CC(C)(C)NC2=O)NC2N=NC(Cl)=C21 (configuration not stated) [US20250313563, Compound 949417] | < 100 nM | < 100 nM
21 | C[C@@H]1C[C@]2(CCN1S(C)(=O)=O)C1=CN=NC1NC1=C2C(=O)CC(C)(C)C1 (some centres not stated) [US20250313563, Compound 918316] | 100 to 1000 nM | < 100 nM
22 | CCC1(c2cccc(-c3cnn(CCOC)c3)c2)C2=C(CC(C)(C)CC2=O)NC2N=NC(C)=C21 (configuration not stated) [US20250313563, Compound 883996] | 100 to 1000 nM | < 100 nM
23 | CC[C@]1(c2cccc(-c3cnn(Cc4cccc(C(F)(F)F)c4)c3)c2)C2=CN=NC2NC2=C1C(=O)NC(C)(C)C2 (some centres not stated) [US20250313563, Compound 949513] | > 5000 nM | > 5000 nM

Row | SMILES | IC50 [1] | IC50 [2]
24 | CC[C@@]1(c2cccc(-c3ccnc(C)c3)c2)C2=CN=NC2NC2=C1C(=O)N[C@@]1(CCOC1)C2 (some centres not stated) [US20250313563, Compound 948149] | 100 to 1000 nM | < 100 nM
25 | CC[C@@]1(c2cccc(N(C)c3nccc(C)n3)c2)C2=CN=NC2NC2=C1C(=O)CC(C)(C)C2 (some centres not stated) [US20250313563, Compound 945329] | 1000 to 5000 nM | 100 to 1000 nM
26 | CC1(C)CC(=O)C2=C(C1)NC1=C(CN=N1)[C@]21C[C@@]2(CCN(CC(F)(F)F)C2)C1 [US20250313563, Compound 913138] | 100 to 1000 nM | 100 to 1000 nM
27 | CC[C@@]1(c2cccc(N(C)C(C)=O)c2)C2=CN=NC2NC2=C1C(=O)CC(C)(C)C2 (some centres not stated) [US20250313563, Compound 810359] | > 5000 nM | > 5000 nM
28 | CC1(C)CC(=O)C2=C(C1)NC1N=NC=C1[C@@]21CCc2c(F)cccc21 (some centres not stated) [US20250313563, Compound 806632] | > 5000 nM | > 1670 nM
29 | CC[C@]1(c2cccc(-c3ccncc3C)c2)C2=CN=NC2NC2=C1C(=O)N[C@]1(CCCOC1)C2 (some centres not stated) [US20250313563, Compound 947911] | < 100 nM | < 100 nM
30 | CC[C@@]1(c2ccccc2)C2=CN=NC2NC2=C1C(=O)C[C@@H](C(F)(F)F)C2 (some centres not stated) [US20250313563, Compound 806609] | > 1670 nM | 100 to 1000 nM
31 | CCC1(c2cccc(S(=O)(=O)C3CCOCC3)c2)C2=CN=NC2NC2=C1C(=O)CC(C)(C)C2 (configuration not stated) [US20250313563, Compound 927344] | < 100 nM | < 100 nM
32 | CC1(C)CC(=O)C2=C(C1)NC1=C(CN=N1)C21CCN(S(=O)(=O)c2ccc3c(c2)CCO3)CC1 [US20250313563, Compound 913251] | < 100 nM | < 100 nM
33 | COc1cc(S(=O)(=O)N2CCC3(CC2)C2=C(N=NC2)NC2=C3C(=O)CC(C)(C)C2)ccc1F [US20250313563, Compound 947263] | < 100 nM and 1000 to 5000 nM | < 100 nM and 100 to 1000 nM
34 | CCC1(c2cccc(C(F)(F)F)c2)C2=CN=NC2NC2=C1C(=O)N(c1nn(C)cc1C)CC2 (configuration not stated) [US20250313563, Compound 950486] | 1000 to 5000 nM | 100 to 1000 nM
35 | CC[C@]1(c2cccc(C3=CN=NC3)c2)C2=C(CC(C)(C)CC2=O)NC2N=NC(C)=C21 (some centres not stated) [US20250313563, Compound 913044] | 100 to 1000 nM | 100 to 1000 nM
36 | CC[C@]1(c2cccc(-c3cnc(C)n3C)c2)C2=CN=NC2NC2=C1C(=O)CC(C)(C)C2 (some centres not stated) [US20250313563, Compound 945613] | < 100 nM and 1000 to 5000 nM | < 100 nM and 100 to 1000 nM
37 | CCC1(c2cccc(OC)c2)C2=CN=NC2NC2=C1C(=O)CC(C)(C)C2 (configuration not stated) [US20250313563, Compound 801447] | 1000 to 5000 nM | 100 to 1000 nM
38 | CC1(C)CC(=O)C2=C(C1)NC1=C(CN=N1)[C@@]21COC2(CN(C(=O)C3CCCC3)C2)C1 [US20250313563, Compound 943957] | < 100 nM | < 100 nM
39 | CC1(C)CC(=O)C2=C(C1)NC1=C(CN=N1)C21COC2(CN(C(=O)c3ccc(F)cc3)C2)C1 (configuration not stated) [US20250313563, Compound 947292] | < 100 nM | < 100 nM
40 | CC[C@@]1(c2cccc(-c3ccncc3O)c2)C2=CN=NC2NC2=C1C(=O)CC(C)(C)C2 (some centres not stated) [US20250313563, Compound 945724] | < 100 nM and 1000 to 5000 nM | < 100 nM and 100 to 1000 nM
41 | CC[C@]1(c2cccc(C(F)(F)F)c2)C2=CN=NC2NC2=C1C(=O)N(c1ccccn1)CC2 (some centres not stated) [US20250313563, Compound 949310] | 100 to 1000 nM | 100 to 1000 nM
42 | CC[C@@]1(c2cccc(-c3ccnc(C)c3F)c2)C2=CN=NC2NC2=C1C(=O)NC(C)(C)C2 (some centres not stated) [US20250313563, Compound 948306] | 100 to 1000 nM | < 100 nM
43 | CCC1(c2cccc(N3CCOc4ccccc43)c2)C2=CN=NC2NC2=C1C(=O)CC(C)(C)C2 (configuration not stated) [US20250313563, Compound 918280] | < 100 nM | < 100 nM
44 | CCC1(c2cccc(C(F)(F)F)c2)C2=C(NC3=NN=CC31)c1ccccc1C2=O (configuration not stated) [US20250313563, Compound 948205] | < 100 nM and 100 to 1000 nM | < 100 nM and 100 to 1000 nM
45 | CCC1(c2cccc(N(C)C(=O)c3ccn(C)n3)c2)C2=CN=NC2NC2=C1C(=O)CC(C)(C)C2 (configuration not stated) [US20250313563, Compound 917130] | 100 to 1000 nM | < 100 nM
46 | CCC1(c2cccc(N3CCCCC3)c2)C2=C(CC(C)(C)NC2=O)NC2N=NC(C)=C21 (configuration not stated) [US20250313563, Compound 947674] | 100 to 1000 nM | < 100 nM
